Experiment [1] concerns TMD8 tumor cells. The experiment is described as follows: TMD8 large B lymphoma xenograft model in C.B. 17 SCID mice. In kind it is in vivo, mouse. As to conditions: FIG. 6 A-C. The procedure:
Cell Culture: The OCI-LY10 or TMD8 tumor cells were maintained as suspension in RPMI1640 medium supplemented with 10% fetal bovine serum, 100 U/mL penicillin and 100 μg/mL streptomycin at 37° C. in an atmosphere of 5% CO2 in air. The tumor cells were routinely subcultured twice weekly by trypsin-EDTA treatment. The cells growing in an exponential growth phase were harvested and counted for tumor inoculation.
Animals: C.B. 17 SCID, female, 6-8 weeks, weighing approximately 16-18 g were used. Animals were housed and maintained according to IACUC protocols. […]
Assignment to Groups: Before commencement of treatment, all animals were weighed and the tumor volumes were measured. […]
Observation: After tumor inoculation, the animals were checked daily for morbidity and mortality. […] Mortality and observed clinical signs were recorded for individual animals in detail.
Data Collection: Tumor volumes were measured in two dimensions using a caliper, and the volumes were expressed in mm^3 using the formula: “V=(L×W×W)/2, where V is tumor volume, L is tumor length (the longest tumor dimension) and W is tumor width (the longest tumor dimension perpendicular to L).
At termination: At pre-determined time points based on study design, animals were humanely sacrificed by CO2. […] Compound was determined in tumor and plasma using LC/MS with calibrated standards.

Experiment [2] relates to BALB/c mice. The experiment is described as follows: MSU crystal-induced inflammatory cell infiltration into six-day air pouch (gout model). The format is in vivo, mouse. As to conditions: orally dosed; FIG. 15. As to the method:
Animals: BALB/c mice, male, 5-6 weeks, weighing approximately 19-23 g were used. Animals were housed and maintained according to IACUC protocols.
Air Pouch: Each mouse was anesthetized and injected with 6 mL of sterile air subcutaneously (SC) at the nape of the neck and the injection site was sealed with flexible colloidon to create an air pouch. Three days later, the mice were injected with 3 mL of sterile air SC at the same site and the injection site was sealed with flexible colloidon.
Preparation of MSU Crystals: 10 g uric acid (Sigma, Cat. U2625, lot BCBM5312V) was heated to 60° C. in 2 L purified water, containing 5.8 mL 10 N NaOH. The pH of the heated mixture was adjusted to 8.9, yielding a clear solution which was stored overnight at 4-8° C. to allow MSU crystals to form and precipitate. The MSU crystals were washed three times with 1 L purified water and stored at 37° C. to dry.
Formulation of Degrader: 0.5% CMC/0.25% Tween-80 was prepared by dissolving 0.5 g carboxymethylcellulose (Sigma, Cat. C4888, lot 101K0185) in 100 mL de-ionized water followed by the addition of 0.25 mL Tween-80 (Sigma, Cat. P1754, lot 073K0064). […]
Termination, Cell Collection and Data: Four hours after MSU/saline injection, the mice were anesthetized and humanely exsanguinated. […] The air pouch was gently massaged, the contents immediately removed, and the exudate volume recorded. […]

Experiment [3] concerns U2932. Description: U2932 viability, CTG. The format is cell-based. As to conditions: Homo sapiens, U2932.
The test system of experiment [4] is cytokines induced by TLR stimuli. The experiment is described as follows: Human whole blood cytokine release assays. In kind it is cell-based. As to conditions: compared with IRAK4 inhibition with PF-06550833, FIG. 16. As to the method: Fresh human whole blood was collected in Na Heparin tubes and received from […] same day as collection. 200 uL of whole blood was aliquoted per well into a 96 well plate. Whole blood was pre-incubated with compounds overnight at 37° C., 5% CO2. Following compound incubation, samples were stimulated with […] (invivogen #tlrl-r848), LPS 10 ng/mL (Sigma #L2637) or IL-1β 25 ng/mL (R&D systems 201-LB) and incubated for an additional 5 hours. At the end of the assay, blood was spun down for 15 min at 4° C. and plasma was collected and immediately stored at −80° C. Cytokine and chemokine levels were measured by custom ordered U-plex MSD panels (panel 1: IFNy, IL-10, IL-1β, IL-6, IL-8, TNFα) and (panel 2: IP-10, MIP1-α, MIP-1β, IL-12/IL-23p40, GROα).

In experiment [5] the target is IKAROS (Homo sapiens (Human), UniProt Q13422+Q96SW2). The experiment is described as follows: IKAROS degradation in OCI-LY10 (DC50). The format is cell-based.
Chain of IKAROS (Q13422 whole entry): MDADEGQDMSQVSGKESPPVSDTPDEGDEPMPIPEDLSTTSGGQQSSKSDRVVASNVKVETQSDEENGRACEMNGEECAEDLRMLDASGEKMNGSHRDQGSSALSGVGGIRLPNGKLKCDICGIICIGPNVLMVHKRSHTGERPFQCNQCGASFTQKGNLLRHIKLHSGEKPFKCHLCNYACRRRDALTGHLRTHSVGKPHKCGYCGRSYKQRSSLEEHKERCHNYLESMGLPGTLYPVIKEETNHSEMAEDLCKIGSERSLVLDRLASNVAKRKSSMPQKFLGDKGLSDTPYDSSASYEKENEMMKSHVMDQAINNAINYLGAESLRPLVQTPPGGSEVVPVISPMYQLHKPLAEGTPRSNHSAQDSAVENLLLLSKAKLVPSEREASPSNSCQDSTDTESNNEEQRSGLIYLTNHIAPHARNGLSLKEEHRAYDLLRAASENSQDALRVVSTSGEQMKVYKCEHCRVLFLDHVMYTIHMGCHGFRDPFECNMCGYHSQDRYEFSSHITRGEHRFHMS
Chain of IKAROS (Q96SW2 whole entry): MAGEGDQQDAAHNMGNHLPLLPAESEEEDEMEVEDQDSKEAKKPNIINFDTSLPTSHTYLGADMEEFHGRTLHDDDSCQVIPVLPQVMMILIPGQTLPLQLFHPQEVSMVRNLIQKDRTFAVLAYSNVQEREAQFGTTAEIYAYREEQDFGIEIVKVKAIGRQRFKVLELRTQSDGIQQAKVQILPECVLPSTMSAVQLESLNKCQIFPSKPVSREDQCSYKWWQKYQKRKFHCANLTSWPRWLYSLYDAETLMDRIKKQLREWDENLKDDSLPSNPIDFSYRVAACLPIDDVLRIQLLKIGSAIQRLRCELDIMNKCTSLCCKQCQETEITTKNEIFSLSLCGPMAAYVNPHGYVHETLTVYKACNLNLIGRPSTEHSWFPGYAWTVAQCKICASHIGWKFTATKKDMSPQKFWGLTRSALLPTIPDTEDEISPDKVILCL
Chain of IKAROS (Q16531 whole entry partner): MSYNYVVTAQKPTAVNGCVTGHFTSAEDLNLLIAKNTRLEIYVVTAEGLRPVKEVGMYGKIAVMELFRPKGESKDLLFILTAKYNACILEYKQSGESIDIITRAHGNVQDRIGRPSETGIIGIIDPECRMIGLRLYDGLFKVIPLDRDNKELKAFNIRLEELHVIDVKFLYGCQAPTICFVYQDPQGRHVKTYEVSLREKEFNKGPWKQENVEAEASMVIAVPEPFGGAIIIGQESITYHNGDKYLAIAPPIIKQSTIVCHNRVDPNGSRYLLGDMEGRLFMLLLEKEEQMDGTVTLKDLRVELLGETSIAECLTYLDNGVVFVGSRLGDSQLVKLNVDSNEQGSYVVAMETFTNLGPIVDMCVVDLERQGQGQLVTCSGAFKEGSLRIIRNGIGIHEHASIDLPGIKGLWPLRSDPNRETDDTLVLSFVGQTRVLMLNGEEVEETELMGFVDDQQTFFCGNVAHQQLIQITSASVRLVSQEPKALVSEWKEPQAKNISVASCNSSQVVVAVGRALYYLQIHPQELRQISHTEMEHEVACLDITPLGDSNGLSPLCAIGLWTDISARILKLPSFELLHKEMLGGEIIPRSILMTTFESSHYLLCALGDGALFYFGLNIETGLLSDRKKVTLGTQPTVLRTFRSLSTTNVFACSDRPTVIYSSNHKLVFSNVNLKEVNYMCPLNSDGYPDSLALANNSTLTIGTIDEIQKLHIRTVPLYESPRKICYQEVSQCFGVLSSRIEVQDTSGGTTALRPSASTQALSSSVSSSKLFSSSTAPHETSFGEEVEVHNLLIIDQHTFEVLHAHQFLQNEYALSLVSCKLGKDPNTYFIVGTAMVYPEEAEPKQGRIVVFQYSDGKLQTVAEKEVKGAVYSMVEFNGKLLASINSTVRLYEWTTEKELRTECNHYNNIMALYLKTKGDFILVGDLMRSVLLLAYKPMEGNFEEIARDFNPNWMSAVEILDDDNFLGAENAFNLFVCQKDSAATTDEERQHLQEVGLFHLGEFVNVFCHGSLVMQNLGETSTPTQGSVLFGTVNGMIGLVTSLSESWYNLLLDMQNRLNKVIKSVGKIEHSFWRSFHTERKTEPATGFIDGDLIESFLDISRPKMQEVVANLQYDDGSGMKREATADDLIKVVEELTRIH
Experiment [6] concerns SU-DHL6. The experiment is described as follows: SU-DHL6 viability, CTG. In kind it is cell-based. As to conditions: Homo sapiens, SU-DHL-6.
Experiment [7] deals with SU-DHL2. Description: SU-DHL2 viability, CTG. The format is cell-based. As to conditions: Homo sapiens, SU-DHL-2.

Read-outs that look alike come from different tables or passages of the source.

For `CN(CCCOCCCc1cccc2c1n(C)c(=O)n2C1CCC(=O)NC1=O)C[C@H]1CC[C@H](n2cc(NC(=O)c3coc(-c4ccnc(NCC5CC5)c4)n3)c(C(F)F)n2)CC1` (mixture of isomers) [I-30, 2-[2-(Cyclopropylmethylamino)-4-pyridyl]-N-[3-(difluoromethyl)-1-[4-[[3-[3-[1-(2,6-dioxo-3-piperidyl)-3-methyl-2-oxo-benzimidazol-4-yl]propoxy]propyl-methyl-amino]methyl]cyclohexyl]pyrazol-4-yl] oxazole-4-carboxamide], the “activity in TMD8 xenograft model” value in experiment [1] is listed as “active”. For the same compound, the IL-1β in plasma entry in experiment [2] is recorded as “dose-dependent decrease in IL-1β”.
As to `CN(C[C@H]1CC[C@H](n2cc(NC(=O)c3coc(-c4ccnc(NCC5CC5)c4)n3)c(C(F)F)n2)CC1)C1CCN(Cc2cccc3c2n(C)c(=O)n3C2CCC(=O)NC2=O)CC1` (stereo partly shown) [I-75, 2-(2-((cyclopropylmethyl)amino)pyridin-4-yl)-N-(3-(difluoromethyl)-1-((1r,4r)-4-(((1-((1-(2,6-dioxopiperidin-3-yl)-3-methyl-2-oxo-2,3-dihydro-1H-benzo[d]imidazol-4-yl)methyl)piperidin-4-yl)(methyl)amino)methyl)cyclohexyl)-1H-pyrazol-4-yl)oxazole-4-carboxamide], the IC50 in experiment [3] (MYD88 WT Lines, read-out: U2932 Viability, CTG IC50) is 374 nM; in experiment [3] (MYD88 WT, read-out: U2932 CTG IC50), 374 nM; in experiment [6] (MYD88 WT Lines, read-out: SU-DHL6 Viability, CTG IC50) it was 1600 nM; in experiment [6] (MYD88 WT, read-out: SU-DHL6 CTG IC50) it was 1600 nM; in experiment [7] (MYD88 MUT, read-out: SU-DHL2 CTG IC50), 290 nM; in experiment [7] (MYD88 Mutant Lines, read-out: SU-DHL2 Viability, CTG IC50), 290 nM. In experiment [4], the “range of cytokines inhibited, induced by different TLR stimuli” value is listed as “inhibits a broader range of cytokines”. Besides, in experiment [5], the DC50 is above 100 nM.

Source of the values: US11352350B2, “IRAK degraders and uses thereof” (Kymera Therapeutics, Inc., priority 2018, dated 2022).
